Assay results: patent US11207291B2, “Antimicrobial compositions comprising cannabinoids and methods of using the same” (Graphium Biosciences, Inc., priority 2017, dated 2021)
Converted amounts (≈) assume the structure as drawn. Read-outs that look alike come from different tables or passages of the source.

Assays:
Candida parapsilosis [1] = conditions: ATCC 22019, Example 4 table, cited from earlier work
Aspergillus fumigatus [2] = assay: Broth microdilution MIC, fungi (Example 4); type: cell-based; conditions: Example 4, isolate MMX 5280 (MYA-3626)
Candida parapsilosis [3] = assay: Broth microdilution MIC, yeast and fungi (Example 1); type: cell-based; conditions: Example 1, isolate MMX 2323 (ATCC 22019)
Aspergillus fumigatus [4] = assay: as above; type: cell-based; conditions: isolate MMX 5280 (ATCC MYA-3626)
Aspergillus fumigatus [5] = conditions: ATCC MYA-3626; 48 hr; Example 1 table; cited from earlier work
Candida parapsilosis [6] = assay: Broth microdilution MIC, fungi (Example 4); type: cell-based; conditions: Example 4, isolate MMX 2323 (ATCC 22019)
Aspergillus fumigatus [7] = conditions: MYA-3626; 48 hr; Example 4 table; cited from earlier work
Candida parapsilosis [8] = conditions: ATCC 22019, Example 1 table, cited from earlier work

Compound: C[C@@H]1[C@H](O)[C@@H](C)/C=C/C=C/C=C/C=C/C=C/C=C/C=C/[C@H](O[C@@H]2O[C@H](C)[C@@H](O)[C@H](N)[C@@H]2O)C[C@@H]2O[C@](O)(C[C@@H](O)C[C@@H](O)[C@H](O)CC[C@@H](O)C[C@@H](O)CC(=O)O[C@H]1C)C[C@H](O)[C@H]2C(=O)O [Amphotericin B]
- CLSI QC range (MIC) (Candida parapsilosis [1]; 24 hr): (0.5-2)^3, μg/mL
- CLSI QC range (MIC) (Candida parapsilosis [1]; 48 hr): (0.25-4)^3 μg/mL
- MIC at 24 hr (Aspergillus fumigatus [2]; 24 hr): 0.25 µg/mL (≈ 0.271 µM)
- MIC at 48 hr (Aspergillus fumigatus [2]; 48 hr): 1 µg/mL (≈ 1.08 µM)
- MIC at 24 hr (Candida parapsilosis [3]; 24 hr): 0.5 µg/mL (≈ 0.541 µM)
- MIC at 48 hr (Candida parapsilosis [3]; 48 hr): 1 µg/mL (≈ 1.08 µM)
- MIC at 24 hr (Aspergillus fumigatus [4]; 24 hr): 0.5, μg/mL
- MIC at 48 hr (Aspergillus fumigatus [4]; 48 hr): 2 µg/mL (≈ 2.16 µM)
- CLSI QC range (MIC) (Aspergillus fumigatus [5]): 0.5 to 4 µg/mL
- MIC at 24 hr (Candida parapsilosis [6]; 24 hr): 0.12 µg/mL (≈ 0.13 µM)
- MIC at 48 hr (Candida parapsilosis [6]; 48 hr): 0.5 µg/mL (≈ 0.541 µM)
- CLSI QC range (MIC) (Aspergillus fumigatus [7]): (0.5-4)^3 μg/mL
- CLSI QC range (MIC) (Candida parapsilosis [8]; 24 hr): 0.5 to 2 µg/mL
- CLSI QC range (MIC) (Candida parapsilosis [8]; 48 hr): 0.25 to 4 µg/mL
